Measurements as given in patent US20260049104A1, “PEPTIDES WITH ANTIMICROBIAL PROPERTIES” (priority 2022, published 2026).
Converted amounts (≈) assume the structure as drawn. Where two headings read alike, the source gives them in different places. No end group written: not given here.

Legend:
Bacillus subtilis = type: cell-based; conditions: Bacillus subtilis ATCC 6633
Source text: (§1) The experiments were repeated three times.

Morganella morganii = type: cell-based; conditions: Morganella morganii ATCC 25830
Source text: as §1

Pseudomonas aeruginosa = type: cell-based; conditions: Pseudomonas aeruginosa ATCC 9027
Source text: as §1

Acinetobacter baumannii = tested on: Acinetobacter baumannii
Description: (§2) MIC screening of the peptides against a panel of ATCC and clinical strains was performed using broth microdilution method.^1 Briefly, peptides stock solutions in DMSO (0.1/G TFA) were diluted into Mueller Hinton Broth (MHB), followed by two-fold serial dilution in a 96-well plate. Bacteria culture in mid-log phase was diluted into MHB to yield […] colony-forming units (CFU)/mL. Equal volume of the starting inoculum was added to the peptide samples, then incubated for 18-20 h (37° C., 120 rpm). OD600 of the samples was then measured using Tecan Infinite M200 (TECAN, Männedorf, Switzerland). MIC is defined as the lowest peptide concentration to achieve more than 90% reduction in OD600 relative to the drug-free control. The experiments were repeated three times. Colistin-resistant clinical isolates are a kind gift from Dr. Jeanette Koh (National University Hospital, Singapore). Multidrug-resistant clinical isolates are a kind gift from Dr. Lakshminarayanan Rajamani (Singapore Eye Research Institute, Singapore).
(§3) Kanamycin and ampicillin were used as antibacterial control agents. […] Then, sequential 2-fold serial dilutions of the mix were diluted in 50 μL MH broth and 50 μL cell cultures were added to wells. […] All assays were carried out in triplicate.

Escherichia coli = conditions: for MIC: Escherichia coli ATCC 25922
Description: as §2, §3

Klebsiella pneumoniae = tested on: Klebsiella pneumoniae
Description: as §2, §3

Staphylococcus aureus = Staphylococcus aureus ATCC 29737
Description: as §2, §3

Enterococcus faecalis = type: cell-based; conditions: strain not given, Table 14, preliminary screening
Description: MIC values for compounds (1-11) were assessed using 96-well plate format with Mueller Hinton (MH) broth, using the two-fold dilution method, previously reported in standard methods provided by Clinical and Laboratory Standards S8 Institute (CLSI). Kanamycin and ampicillin were used as antibacterial control agents. According to the reference, the compounds (1-11) were first dissolved in DMSO+0.1% TFA at a concentration of 3.2 mg/mL and 4 μL was serially diluted in 96 μL of MH broth. Then, sequential 2-fold serial dilutions of the mix were diluted in 50 μL MH broth and 50 μL cell cultures were added to wells. […] All assays were carried out in triplicate.

Enterobacter cloacae = conditions: Enterobacter cloacae, strain not given; Table 14, preliminary screening
Description: as §2, §3

[1] = tested on: Gram-positive and Gram-negative bacteria; conditions: panel of E. coli, K. pneumoniae, E. cloacae, A. baumannii, E. faecalis and S. aureus; preliminary screening
Description: as §2, §3

[2] = Table 14, preliminary screening

Row | Compound | MIC (Bacillus subtilis) [µg/mL] | MIC (Morganella morganii) [µg/mL] | MIC (Pseudomonas aeruginosa) [µg/mL] | MIC (Acinetobacter baumannii; Acinetobacter baumannii ATCC 19606) [µg/mL] | MIC (Escherichia coli) [µg/mL] | MIC (E. coli) (Escherichia coli; strain not stated, product produced and tested against E. coli) [µg/mL] | MIC (Klebsiella pneumoniae; Klebsiella pneumoniae ATCC 700603) [µg/mL] | MIC (Staphylococcus aureus) [µg/mL] | MIC (Enterococcus faecalis) [µg/mL] | MIC (Acinetobacter baumannii; Acinetobacter baumanii ATCC 19606, Table 14, preliminary screening) [µg/mL] | MIC (Enterobacter cloacae) [µg/mL] | MIC (Escherichia coli; [2]) [µg/mL] | antibacterial activity [1] | MIC (Klebsiella pneumoniae; Klebsiella pneumoniae ATC 700603, Table 14, preliminary screening) [µg/mL] | MIC (Staphylococcus aureus; [2]) [µg/mL]
1 | CC[C@H](C)[C@H](NC(=O)[C@H](CCCNC(=N)N)NC(=O)[C@H]1NC(=O)[C@H]([C@@H](C)O)NC(=O)[C@@H](NC(=O)[C@H]2NC(=O)[C@H](C)NC(=O)[C@@H](NC(=O)[C@H](C)NC(=O)[C@H]3NC(=O)[C@H]([C@@H](C)CC)NC(=O)[C@@H](N)Cc4c[nH]c5cc(ccc45)[C@@H]3C(N)=O)Cc3ccc(cc3)[C@@H]2C(N)=O)Cc2c[nH]c3cc(ccc23)[C@@H]1CCCN)C(=O)O [xenorceptide A3] | >64 | 64 (≈ 42.3 µM) | 64 (≈ 42.3 µM) | >64 | 8 (≈ 5.28 µM) | 8 (≈ 5.28 µM) | 8 (≈ 5.28 µM) | >64 | – | – | – | – | – | – | –
2 | RGEGWVRAYWAKRF [Compound 26] | – | – | – | – | – | – | – | – | >64 | >64 | >64 | >64 | not active | >64 | >64
